Source: EP0652009A1, “Identification and use of protease inhibitors” (ELI LILLY AND COMPANY, priority 1993, dated 1995)
Non-standard residues stand in square brackets, D forms with d. Residues, ends and D or L forms follow the SMILES beside them. 2Nal = N[C@@H](Cc1ccc2ccccc2c1)C(=O)O; Sta = CC(C)C[C@H](N)[C@@H](O)CC(=O)O

Target: Cathepsin D (Homo sapiens, UniProt P07339)
Test: Assay 3: cathepsin D inhibition activity (non-cellular assay, chromogenic substrate)
Type: biochemical
Design: Frozen human placental tissue was thawed and homogenized in 10mM Tris-HCl, pH 7.4; from tissue; host or cells: human placenta
Conditions: cathepsin D from human placental tissue, pH 3.7, 37°C
Experimental: A third non-cellular assay for determining in vitro aspartyl protease inhibitory activity is generally described in Jupp, R.A. et al., (1990) Biochem. J., 265:871-878 and Rao et al., J. Med. Chem. (1993), in press. The assay is carried out by incubating a test compound with a suitable aspartyl protease, such as cathepsin D, in the presence of a chromogenic substrate. The inhibition constant, Ki, value may then be determined by quantifying the competitive inhibition of the hydrolysis of the chromogenic substrate. A variety of chromogenic substrates that are useful for assaying aspartyl protease activity are discussed in Dunn, et al., (1986) Biochem. J., 237:899-906. A preferred chromogenic substrate for a cathepsin D assay is disclosed in Scarborough, P.E. et al., Protein Science, (1993), 2:264-276.
Concentrations of substrate solutions and cleavage products may be verified using amino acid analysis. The enzyme preparations may be titrated with a tightly binding inhibitor to quantitate the active concentration of the enzyme. Enzyme concentrations are typically in the range of from 1-6 nM. […]
A decrease in absorbance in the range of 284-324 nm may be monitored using a spectrophotometer. Absorbance readings are typically taken at various timepoints. […] Estimates of Ki may then be determined using the Dixon construction. […]

Chain of Cathepsin D (P07339 65-412): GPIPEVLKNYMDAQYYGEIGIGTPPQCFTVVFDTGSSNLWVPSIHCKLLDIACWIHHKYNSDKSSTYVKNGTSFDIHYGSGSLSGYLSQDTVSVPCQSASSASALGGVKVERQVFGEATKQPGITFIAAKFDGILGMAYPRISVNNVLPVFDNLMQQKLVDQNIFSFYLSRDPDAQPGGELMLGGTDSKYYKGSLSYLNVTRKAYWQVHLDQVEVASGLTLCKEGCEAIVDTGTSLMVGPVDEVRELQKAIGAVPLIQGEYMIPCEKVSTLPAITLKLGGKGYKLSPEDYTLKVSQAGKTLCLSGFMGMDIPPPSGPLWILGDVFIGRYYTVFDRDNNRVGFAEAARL

- Ki: 390 ± 40 pM
Structure (SMILES): CC(=O)N[C@@H](Cc1ccc2ccccc2c1)C(=O)N[C@H](C(=O)N[C@@H](CC(C)C)[C@@H](O)CC(=O)N[C@@H](CC(C)C)C(=O)N[C@@H](Cc1ccc2ccccc2c1)C(N)=O)C(C)C [Example 36, Acetyl-β-naphthylalanine-valine-statine-leucine-β-naphthylalanine-amide] (Ac-[2Nal]V[Sta]L[2Nal]-NH2)
